Experimental data taken from US20250302846A1, “ANTIBIOTIC COMPOSITION AND METHODS OF USE THEREOF” (THE REGENTS OF THE UNIVERSITY OF COLORADO A BODY CORPORATE, priority 2022, published 2025).
Converted amounts (≈) assume the structure as drawn.

How the values were obtained:
RAW 264.7 cells = assay: Mitochondrial membrane potential with TMRM; conditions: uninfected RAW 264.7 cells; D66 first two hours; CCCP 7 μM
S. aureus (FDA209) = assay: Membrane voltage with DiSC3(5) in Gram-positive bacteria; format: cell-based; conditions: mid-log S. aureus FDA209 in LB
Description: A) D66 quenches the fluorescent dye DiSC3 (5) in a dose-dependent manner. Data were normalized to DMSO at time 0. Relative fluorescent units (RFU). Mean and SEM of three biological replicates performed with technical triplicates. B, C) Mid-log phase S. aureus (FDA209) in LB were treated at time 0 with DMSO, gramicidin [2 μg/mL], or D66 (1x MIC95=130 μM). B) Fold change in RFU. Data are normalized to DMSO at time 0. C) Data normalized to account for the quenching effect of D66 on DiSC3 (5) observed in A. Mean and SEM of three biological replicates performed with technical triplicates. D) Bacillus subtilis expressing mNeonGreen-FtsZ at stationary phase in LB were placed on agar pads containing D66 at the indicated concentration (1x MIC95=89 μM). Confocal microscope images were taken after 15 minutes to ascertain whether D66 disrupted the septal localization of FtsZ.

[1] = test system: S. Typhimurium (SL1344 with sifB::gfp) in RAW 264.7 macrophages; assay: SAFIRE assay: bacterial accumulation (GFP) in macrophages; format: cell-based; conditions: Salmonella enterica, RAW264.7, 16 h, read-out: IC50 in SAFIRE
Description: FIG. 1A-D. D66 is a small molecule that prevents S. Typhimurium replication and/or survival in macrophages. A). Structure of D66. B) RAW264.7 macrophage-like cells were infected with S. Typhimurium harboring a chromosomal sifB: : gfp reporter, treated with DMSO or D66 at two hours after infection, and monitored for bacterial accumulation (GFP+Macrophage Area) over 16 hours using the SAFIRE (Screen for Anti-infectives using Fluorescence microscopy of Intracellular Enterobacteriaceae) assay. The IC50 value is indicated. Mean and SD of biological duplicates with technical duplicates across 9 dilutions of D66. C, D) CFU assays were performed with RAW264.7 or HeLa cells infected with S. Typhimurium SL1344 or 14028 for two hours and treated for 16 hours with DMSO or 1.5-fold dilutions of D66, prior to lysis and plating for CFU. Symbols on the Y-axes are the CFU value from DMSO-treated samples. […]
SAFIRE and CFU assays: SAFIRE assays were performed with RAW 264.7 (TIB-71) macrophages seeded at […] in 100 μL of complete DMEM in 96-well tissue culture plates (Greiner, 655180) and incubated at 37° C. with 5% CO2. […] After 16 hours of treatment, samples were imaged on a spinning disk confocal microscope, and a MATLAB algorithm calculated bacterial accumulation (GFP fluorescence) within macrophages, as defined by DAPI (DNA) and MitoTracker Red, a vital dye for mitochondrial voltage. […]

[2] = Murine pharmacokinetic analysis; format: in vivo, C57BL/6 mice; conditions: mice, 50 mg/kg IP
Description: FIG. 7A-B. D66 pharmacokinetic parameters. Values were calculated by compartmental modeling using Phoenix WinNonlin. Data fit a two-compartment model (r=0.9976) with bolus dosing. A) Decay curve. B) Parameter values.
Murine pharmacokinetic analyses and infections: Three female C57BL/6 mice were injected intraperitoneally (IP) with 50 mg/kg of D66 formulated in DMSO (50 μL). […] Three mice were initially dosed and observed for 24 hours to determine tolerability. […] Plasma D66 levels were measured using a liquid chromatography coupled to tandem mass spectrometry (LC/MS/MS) assay by the University of Colorado Cancer Center Drug Discovery and Development Shared Resource. The assay used monitored the transition of D66 (376 m/z->176 m/z) and was linear from 1-1000 ng/ml with an accuracy and precision of 90.3%+10.4% (% CV) based on quality control (QC) samples included with analyzed unknown samples.

[3] = test system: staphylococcal persister cells; assay: Staphylococcal persister cell viability in broth; format: cell-based; conditions: overnight cultures in broth, D66 at MIC95
Description: A-D) Overnight cultures of the indicated strains were treated at time 0 with DMSO, ciprofloxacin [4 μg/mL], vancomycin [10 μg/mL], or the corresponding MIC95 concentration of D66 (1x MIC95=130 μM, 49 μg/mL). Cultures were plated for enumeration of CFU at time points indicated. Mean and SEM of three biological replicates. E) RAW 264.7 macrophage-like cells and HeLa cells were infected with S. aureus USA300, at MOIs of 0.5 and 2.5, respectively. Cells were treated two hours after infection with DMSO (gray circle on Y axis), or dilutions of D66 from 40 μM. After 8 hours of infection, cells were lysed and plated for enumeration of CFU. Mean and SEM of biological duplicates performed with technical triplicates each with six dilutions of D66. The IC50 value that was calculatable is indicated.

[4] = Solubility limit in assay medium; format: physicochemical; conditions: bacterial growth broth (LB or MHB), 37 °C, plasma or biological fluid, kinetic from dmso stock, final DMSO at or below 2%

With `O=C(Nc1cc(Cl)cc(Cl)c1)N1CCCN(Cc2ccccc2)CC1` [D66] the “TMRM fluorescence (mitochondrial membrane potential)” value (RAW 264.7 cells) was “increased TMRM signal in a dose-dependent manner”, the “voltage across the bacterial cytoplasmic membrane” value (S. aureus (FDA209)) was “rapidly disrupts voltage across the bacterial cytoplasmic membrane” and the IC50 [1] was 6 ± 0.5 µM. For the same compound, the half-life ([2]; female, C57BL/6, mouse, plasma, two-compartment model, read-out: elimination (terminal) half-life (converted)) was 3 h, the peak serum concentration [2] was 3.5 µM and the “steady state volume of distribution (Vss)” value [2] was 43.3 L/kg. The “elimination (terminal) half-life” value ([2]; two-compartment model, 50 mg/kg) was 3.0 h, the “number of viable staphylococcal persister cells” value [3] was “did not reduce the number of viable staphylococcal persister cells in broth” and the solubility [4] was about 150 µM (≈ 56.7 µg/mL).
